Assay in all cases: DTP human tumour cell line panel, 48 h
In assay [1] the test system is SK-MEL-2 melanoma.
In assay [2] the test system is SNB-78 CNS.
Assay [3] has as its system HOP-18 NSCLC.
Assay [4] relates to DMS 273 small cell lung.
In assay [5] the test system is OVCAR-5 ovarian.
Assay [6] deals with NCI-H23 lung.
Assay [7] relates to DLD-1 colon.
In assay [8] the test system is A498 renal.
Assay [9] relates to LXFL 529 NSCLC.
For assay [10], the system named is DMS 114 small cell lung.
The subject of assay [11] is SNB-75 CNS.

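All cell lines were grown in 96-well plates and treated with compound for 48 hours. The concentration for full growth arrest is given as TGI.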 A value given as a limit tells only on which side of the number the result lay.

Broadly, the TGI is the concentration giving total growth inhibition.

On to `COc1ccc2c(c1)CC[C@@H]1C2CC[C@]2(C)C(=O)NC(=O)CC12` (stereo partly specified), for which the concentration for total growth inhibition (TGI) in [1], in assay [2], in [3], in [4], in assay [5] and in assay [6] was over 100 µM each time. Also, the TGI in assay [7], in assay [8] and in assay [9] was over 100 µM each time.
For the molecule `COc1ccccc1/C=C\c1cc(OC)c(OC)c(OC)c1`, the TGI was over 100 µM in [2]; over 100 µM in [3]; over 100 µM in assay [4]; 89.4 µM in assay [5]; over 100 µM in assay [10]; over 100 µM in [7]. In addition, the total growth inhibition concentration (TGI) was 72.6 µM in assay [11], 54.7 µM in assay [8] and over 100 µM in [9].
On to `COC(=O)C1=C(C(=O)OC)C2(C(=O)OC)OC1(OC)C(C1(C(=O)OC)C(C(=O)OC)=C1C(=O)OC)=C2C(=O)OC` (stereo unspecified), for which the TGI in assay [1], in [2], in assay [3], in assay [4], in [5] and in [6] was over 100 µM in each case. The TGI in assay [10], in [7], in assay [11] and in assay [9] was over 100 µM in each case.
As for `Cc1ccc(N2C(=O)/C(=C3\Sc4c(nc(C)[nH]c4=O)N3c3ccccc3)SC2=S)cc1`, the TGI is over 100 µM in assay [1]; over 100 µM in assay [2]; over 100 µM in [4]; over 100 µM in assay [5]; 56.7 µM in assay [6]; over 100 µM in assay [10]. Further, the TGI in assay [7] was over 100 µM; in [11], 56.4 µM; in [8] it was 88.2 µM; in [9], over 100 µM.
In the case of `CCC1(OC(C)=O)C(=O)OCc2c1cc1n(c2=O)Cc2cc3ccccc3nc2-1` (stereo unspecified), the TGI in assay [1] was over 100 µM; in assay [2] it was over 100 µM; in [3] it was over 100 µM; in assay [5], 28.9 µM; in assay [6], 4.6 µM; in assay [10], 11.9 µM. Also, the total growth inhibition concentration (TGI) was over 100 µM in assay [7], over 44.6 µM in assay [11], 25.5 µM in [8] and over 100 µM in assay [9].
Turning to `Cc1ccc(Nc2ccc(Nc3ccc(C)cc3)c3c2C(=O)c2c(O)ccc(O)c2C3=O)cc1`, the TGI in assay [1], in [2], in [4], in assay [5], in [6] and in [10] was over 100 µM throughout. The TGI in [7], in assay [11], in assay [8] and in [9] was over 100 µM each time.
Take `COc1ccc(O)c2c1C(=O)CCCC2=O`: the TGI in [1], in [2], in assay [4], in assay [5], in assay [6] and in assay [10] was over 100 µM in each case. Besides, the TGI in assay [7], in assay [8] and in assay [9] was over 100 µM in each case.
In the case of `Fc1ccccc1C1CC(C(c2ccccc2)c2ccccc2)=Nc2ccccc2S1` (stereo unspecified), the total growth inhibition concentration (TGI) in [1] amounted to 21.6 µM; in assay [3], 31.4 µM; in assay [4], 20.9 µM; in assay [5] it was 33.6 µM; in [6], 24.7 µM; in assay [10], 23.6 µM. Moreover, the TGI was 23.6 µM in [7], 5.48 µM in assay [11], 20 µM in assay [8] and 15.3 µM in assay [9].
As for `Cc1cc(C)nc(NS(=O)(=O)c2ccc(NC(=O)c3cccc4cc5ccccc5nc34)cc2)n1`, the TGI was 85.6 µM in [1]; 72.7 µM in assay [2]; over 100 µM in assay [4]; over 100 µM in assay [5]; 86.5 µM in assay [6]; 98.4 µM in [7]. Besides, the TGI in assay [11] is over 100 µM; in assay [8] it was 50.5 µM; in [9], over 100 µM.
`COc1cc(C2C(C(=O)Nc3ccccc3)=C(C)NC(C)=C2C(=O)Nc2ccccc2)ccc1O`: the TGI was 76.8 µM in [1]; over 100 µM in [2]; over 100 µM in assay [3]; over 100 µM in assay [5]; over 100 µM in assay [6]; over 100 µM in [10]. The TGI in assay [7], in [11], in assay [8] and in [9] was over 100 µM throughout.
For `COc1cccc(C2C(C(=O)Nc3cc(=O)n(C)c(=O)n3C)=C(C)NC(C)=C2C(=O)Nc2cc(=O)n(C)c(=O)n2C)c1O`, the TGI in assay [1], in [2], in assay [5], in [6], in [10] and in assay [7] was over 100 µM throughout. Also, the concentration for total growth inhibition (TGI) in assay [11], in [8] and in [9] was over 100 µM in each case.
Take `CCOC(=O)C(C)(C)Oc1ccc2c(-c3ccc(Cl)cc3)cc(=O)oc2c1`: the concentration for total growth inhibition (TGI) in assay [1], in [4], in [6], in assay [10], in [7] and in assay [11] was over 100 µM each time. Besides, the total growth inhibition concentration (TGI) in [8] and in assay [9] was over 100 µM throughout.
Turning to `CCOC(=O)C12CC1(C(=O)OCC)C1CCC2C1` (stereo unspecified), the TGI in [3], in assay [4], in assay [5], in assay [6], in [10] and in [7] was over 100 µM each time. For the same molecule, the TGI in [8] and in assay [9] was over 100 µM in each case.

The values are drawn from PubChem BioAssay (NCI).
